The test system of one data set is Puccinia recondita. Put plainly: in vivo preventive test on Puccinia recondita (brown rust on wheat). To be noted: for pest or weed control at 500 ppm: Puccinia recondita, 264 h, 500 ppm of active ingredient, young wheat plants sprayed, inoculated after 24 hours, evaluated 11 days after the inoculation, read-out: efficacy. Here is the method:
Example: in vivo preventive test on Puccinia recondita (brown rust on wheat)
(§1) The active ingredients were made soluble and homogenized in a mixture of Dimethyl sulfoxide/Acetone/ /Tween® 80 and then diluted in water to the desired concentration.
The young plants of wheat were treated by spraying the active ingredient prepared as described above. Control plants were treated only with an aqueous solution of Acetone/Dimethyl sulfoxide/ Tween® 80.
After 24 hours, the plants were contaminated by spraying the leaves with an aqueous suspension of Puccinia recondita spores. The contaminated wheat plants were incubated for 24 hours at 20°C and at 100% relative humidity and then for 10 days at 20°C and at 70-80% relative humidity.
The test was evaluated 11 days after the inoculation. 0% means an efficacy which corresponds to that of the control plants while an efficacy of 100% means that no disease was observed.

The nature of data set [1]: LogP measurement by HPLC on reversed phase columns (EEC directive 79/831 Annex V.A8). It is filed as physicochemical. Here is the method:
If more than one LogP value is available within the same method, all the values are given and separated by "+".
Lambda-max-values were determined using UV-spectra from 200 nm to 400 nm and the peak values of the chromatographic signals.

A further data set deals with Sphaerotheca fuliginea. As to the kind of experiment: in vivo preventive test on Sphaerotheca fuliginea (powdery mildew on cucurbits). As to conditions: Podosphaera fuliginea, 192 h; 500 ppm of active ingredient; young gherkin plants sprayed, inoculated after 24 hours, evaluated 8 days after the inoculation; read-out: efficacy. The method, then: Example: in vivo preventive test on Sphaerotheca fuliginea (powdery mildew on cucurbits)
as §1
The young plants of gherkin were treated by spraying the active ingredient prepared as described above. Control plants were treated only with an aqueous solution of Acetone/Dimethyl sulfoxide/ […].
After 24 hours, the plants were contaminated by spraying the leaves with an aqueous suspension of Sphaerotheca fuliginea spores. The contaminated gherkin plants were incubated for 8 days at 20°C and at 70-80% relative humidity.
The test was evaluated 8 days after the inoculation. 0% means an efficacy which corresponds to that of the control plants while an efficacy of 100% means that no disease was observed.

A further data set has as its system Phakospora pachyrhizi. Put plainly: in vivo preventive test on Phakospora pachyrhizi (soybean rust). To be noted: for pest or weed control at 500 ppm: Glycine max, 288 h, 500 ppm of active ingredient, young soybean plants sprayed, inoculated after 24 hours, evaluated 12 days after the inoculation, read-out: efficacy. Here is the method: Example: in vivo preventive test on Phakospora pachyrhizi (soybean rust)
as §1
The young plants of soybean were treated by spraying the active ingredient prepared as described above. Control plants were treated only with an aqueous solution of Acetone/Dimethyl sulfoxide/ […].
After 24 hours, the plants were contaminated by spraying the leaves with an aqueous suspension of Phakosporapachyrhizi spores. The contaminated soybean plants were incubated for 24 hours at 24°C and at 100% relative humidity and then for 11 days at 24°C and at 70-80% relative humidity.
The test was evaluated 12 days after the inoculation. 0% means an efficacy which corresponds to that of the control plants while an efficacy of 100% means that no disease was observed.

[2] abbreviates: reversed phase HPLC column, method [a]: LC-UV, acidic range, 0.1% formic acid in water and acetonitrile as eluent.
Setting [3] is: reversed phase HPLC column, method [b]: LC-UV, neutral range, 0.001 molar ammonium acetate solution in water and acetonitrile as eluent.

Molecules are shown by their SMILES.

For 18 molecules, pest or weed control, chromatographic logP and efficacy results are on record in patent publication EP3708565A1, “PYRIMIDINYLOXYPHENYLAMIDINES AND THE USE THEREOF AS FUNGICIDES” (Bayer AG, priority 2020, dated 2020).

In general, chromatographic logP refers to a lipophilicity value derived from retention on a column. Higher therefore signals a more lipophilic compound.

As to `CCC(C)Sc1nccc(Oc2cc(C)c(N=CN(C)CC)cc2C)n1` (racemic) [I.004, N'-[2,5-dimethyl-4-[2-[rac-(2R)-butan-2-yl]sulfanylpyrimidin-4-yl]oxyphenyl]-N-ethyl-N-methylmethanimidamide], the pest or weed control at 500 ppm in the data set with Puccinia recondita, with Sphaerotheca fuliginea and in the data set on Phakospora pachyrhizi was at least 70% throughout. Further, the chromatographic logP in data set [1] (setting [2]) was 1.87.

With `CCN(C)C=Nc1cc(Br)c(Oc2ccnc(SC(C)(C)C)n2)cc1C` [I.001, N'-[5-bromo-4-(2-tert-butylsulfanylpyrimidin-4-yl)oxy-2-methylphenyl]-N-ethyl-N-methyl-methanimidamide], the pest or weed control at 500 ppm in the data set with Puccinia recondita, with Sphaerotheca fuliginea and in the data set on Phakospora pachyrhizi was at least 70% each time. Moreover, the chromatographic logP in data set [1] (setting [2]) is 1.72; in data set [1] (setting [3]) it was 4.95.

Take `CCN(C)C=Nc1cc(C)c(Oc2ccnc(SCCC(C)C)n2)cc1C` [I.002, N'-[2,5-dimethyl-4-[2-(3-methylbutylsulfanyl)pyrimidin-4-yl]oxyphenyl]-N-ethyl-N-methyl-methanimidamide]: the pest or weed control at 500 ppm in the data set with Puccinia recondita, in the data set on Sphaerotheca fuliginea and in the data set on Phakospora pachyrhizi was at least 70% each time. For the same molecule, the chromatographic logP amounted to 1.9 in data set [1] (setting [2]) and 5.66 in data set [1] (setting [3]).

Take `CCN(C)C=Nc1cc(C)c(Oc2ccnc(CCC(C)(C)C)n2)cc1C` [I.003, N'-[4-[2-(3,3-dimethylbutyl)pyrimidin-4-yl]oxy-2,5-dimethylphenyl]-N-ethyl-N-methylmethan-imidamide]: the pest or weed control at 500 ppm with Puccinia recondita, in the data set with Sphaerotheca fuliginea and with Phakospora pachyrhizi was at least 70% each time. Besides, the chromatographic logP in data set [1] (setting [2]) is 1.63; in data set [1] (setting [3]), 4.89.

As to `CCN(C)C=Nc1cc(Br)c(Oc2ccnc(SCC(F)(F)F)n2)cc1C` [I.005, N'-[5-bromo-2-methyl-4-[2-(2,2,2-trifluoroethylsulfanyl)pyrimidin-4-yl]oxyphenyl]-N-ethyl-N-methylmethanimidamide], the pest or weed control at 500 ppm in the data set on Puccinia recondita, in the data set on Sphaerotheca fuliginea and with Phakospora pachyrhizi was at least 70% throughout. Moreover, the chromatographic logP in data set [1] (setting [2]) stood at 1.58; in data set [1] (setting [3]), 4.66.

As to `CCN(C)C=Nc1cc(C)c(Oc2ccnc(SCC(F)(F)F)n2)cc1Cl` [I.006, N'-[2-chloro-5-methyl-4-[2-(2,2,2-trifluoroethylsulfanyl)pyrimidin-4-yl]oxyphenyl]-N-ethyl-N-methylmethanimidamide], the pest or weed control at 500 ppm in the data set on Puccinia recondita, in the data set with Sphaerotheca fuliginea and in the data set with Phakospora pachyrhizi was at least 70% in each case. Moreover, the chromatographic logP in data set [1] (setting [2]) was determined as 1.53; in data set [1] (setting [3]), 4.19.

`CCN(C)C=Nc1cc(Br)c(Oc2ccnc(SCC(C)C)n2)cc1C` [I.007, N'-[5-bromo-2-methyl-4-[2-(2-methylpropylsulfanyl)pyrimidin-4-yl]oxyphenyl]-N-ethyl-N-methylmethanimidamide]: the pest or weed control at 500 ppm with Puccinia recondita, with Sphaerotheca fuliginea and in the data set on Phakospora pachyrhizi was at least 70% in each case. In addition, the chromatographic logP in data set [1] (setting [2]) worked out at 1.81; in data set [1] (setting [3]) it was 5.25.

Take `CCN(C)C=Nc1cc(C)c(Oc2ccnc(Sc3ccccc3F)n2)cc1C` [I.008, N-ethyl-N'-[4-[2-(2-fluorophenyl)sulfanylpyrimidin-4-yl]oxy-2,5-dimethylphenyl]-N-methyl-methanimidamide]: the pest or weed control at 500 ppm with Puccinia recondita, in the data set on Sphaerotheca fuliginea and with Phakospora pachyrhizi was at least 70% throughout. The chromatographic logP in data set [1] (setting [2]) came out at 1.6.

On to `CCN(C)C=Nc1cc(C)c(Oc2ccnc(SCC(C)C)n2)cc1C` [I.026, N'-[2,5-dimethyl-4-[2-(2-methylpropylsulfanyl)pyrimidin-4-yl]oxyphenyl]-N-ethyl-N-methyl-methanimidamide], for which the pest or weed control at 500 ppm with Puccinia recondita and in the data set with Phakospora pachyrhizi was at least 70% each time. Besides, the figures for the chromatographic logP in data set [1] (setting [2]) and in data set [1] (setting [3]) were 1.61 and 5.06, respectively.

`CCN(C)C=Nc1cc(C)c(Oc2ccnc(C(C)(C)C)n2)cc1C` [I.032, N'-[4-(2-tert-butylpyrimidin-4-yl)oxy-2,5-dimethylphenyl]-N-ethyl-N-methylmethanimidamide]: the pest or weed control at 500 ppm with Puccinia recondita and in the data set on Phakospora pachyrhizi was at least 70% throughout. Besides, the chromatographic logP was determined as 1.46 in data set [1] (setting [2]) and 4.56 in data set [1] (setting [3]).

`CCN(C)C=Nc1cc(C(F)(F)F)c(Oc2ccnc(SCC(C)C)n2)cc1C` [I.035, N-ethyl-N-methyl-N'-[2-methyl-4-[2-(2-methylpropylsulfanyl)pyrimidin-4-yl]oxy-5-(trifluoromethyl)phenyl]methanimidamide]: the pest or weed control at 500 ppm in the data set on Puccinia recondita and in the data set on Phakospora pachyrhizi was at least 70% in each case. Besides, the chromatographic logP in data set [1] (setting [2]) stood at 1.93.

With `CCN(C)C=Nc1cc(Br)c(Oc2ccnc(C(C)(C)C)n2)cc1C` [I.038, N'-[5-bromo-4-(2-tert-butylpyrimidin-4-yl)oxy-2-methylphenyl]-N-ethyl-N-methylmethanimid-amide], the efficacy result in the data set with Puccinia recondita (500 ppm) and in the data set on Phakospora pachyrhizi (500 ppm) was “at least 70%” in each case. In addition, the chromatographic logP in data set [1] (method [a]: LC-UV, acidic range, 0.1% formic acid in water and acetonitrile as eluent) worked out at 1.58; in data set [1] (method [b]: LC-UV, neutral range, 0.001 molar ammonium acetate solution in water and acetonitrile as eluent), 4.93.

For `CCN(C)C=Nc1cc(C)c(Oc2ccnc(SC(C)C)n2)cc1Cl` [I.046, N'-[2-chloro-5-methyl-4-(2-propan-2-ylsulfanylpyrimidin-4-yl)oxyphenyl]-N-ethyl-N-methyl-methanimidamide], the pest or weed control at 500 ppm with Puccinia recondita was at least 70%. For the same molecule, the chromatographic logP worked out at 1.52 in data set [1] (setting [2]) and 4.35 in data set [1] (setting [3]).

For `CCN(C)C=Nc1cc(C)c(Oc2ccnc(Sc3ccncc3)n2)cc1C` [I.047, N'-[2,5-dimethyl-4-(2-pyridin-4-ylsulfanylpyrimidin-4-yl)oxyphenyl]-N-ethyl-N-methylmethan-imidamide], the chromatographic logP in data set [1] (setting [2]) came to 1.13. Besides, in the data set on Sphaerotheca fuliginea, the pest or weed control at 500 ppm was at least 70%.

Take `CCN(C)C=Nc1cc(C)c(Oc2ccnc(SCC(C)C)n2)cc1Cl` [I.048, N'-[2-chloro-5-methyl-4-[2-(2-methylpropylsulfanyl)pyrimidin-4-yl]oxyphenyl]-N-ethyl-N-methylmethanimidamide]: the pest or weed control at 500 ppm in the data set with Puccinia recondita and with Sphaerotheca fuliginea was at least 70% in each case. In addition, the chromatographic logP in data set [1] (setting [2]) is 1.72; in data set [1] (setting [3]), 4.77.

With `CCN(C)C=Nc1cc(C#N)c(Oc2ccnc(SCC(C)C)n2)cc1C` [I.049, N'-[5-cyano-2-methyl-4-[2-(2-methylpropylsulfanyl)pyrimidin-4-yl]oxyphenyl]-N-ethyl-N-methylmethanimidamide], the pest or weed control at 500 ppm in the data set with Puccinia recondita and with Sphaerotheca fuliginea was at least 70% throughout. The figures for the chromatographic logP in data set [1] (setting [2]) and in data set [1] (setting [3]) were 1.6 and 4.5, respectively.

With `CCCSc1nccc(Oc2cc(C)c(N=CN(C)CC)cc2C#N)n1` [I.050, N'-[5-cyano-2-methyl-4-(2-propylsulfanylpyrimidin-4-yl)oxyphenyl]-N-ethyl-N-methylmethan-imidamide], the pest or weed control at 500 ppm in the data set on Puccinia recondita and in the data set on Sphaerotheca fuliginea was at least 70% in each case. The chromatographic logP in data set [1] (setting [2]) came out at 1.44; in data set [1] (setting [3]), 4.16.

The molecule `CCN(C)C=Nc1cc(C(F)F)c(Oc2nc(SCC(C)C)ncc2C)cc1C` [I.051, N'-[5-(difluoromethyl)-2-methyl-4-[5-methyl-2-(2-methylpropylsulfanyl)pyrimidin-4-yl]oxyphenyl]-N-ethyl-N-methylmethanimidamide] had a chromatographic logP in data set [1] (setting [2]) of 1.9. Besides, the pest or weed control at 500 ppm in the data set with Sphaerotheca fuliginea was at least 70%.
